The values below come from US4717731A, “7H thieno[2,3-a]quinolizines, useful as α2 -andrenoceptor antagonist” (John Wyeth & Brother Limited, priority 1984, dated 1988).

SMILES strings stand for the structures.

The subject of one assay is α2 -adrenoceptor. Description: α2-adrenoceptor antagonistic activity on the rat field stimulated vas deferens preparation (vs clonidine). As to conditions: for α2 /α1 selectivity [antilog of (α2 pA2 -α1 pA2)]: from vas deferens α2 pA2 and anococcygeus α1 pA2; for pA2 for α2 -adrenoceptor antagonistic activity: rat field stimulated vas deferens, agonist clonidine, Schild plot, 90 min. Here is the method:
The compounds of the invention are tested for α2 -adrenoceptor antagonistic activity on the rat field stimulated vas deferens preparation using a modification of the method of Drew, Eur. J. Pharmac., 1977, 42, 123-130. The procedure is described below.
Desheathed vasa deferentia from sexually mature rats were suspended in a 6 ml organ bath in Krebs solution at 37° and bubbled with 5% CO2 in oxygen. Platinum ring electrodes were positioned above and below the tissue for field stimulation, the stimulus parameters being 0.1 Hz 1 ms pulse width at supramaximal voltage. Twitch responses were recorded isotonically with a 0.5 g loading. Clonidine hydrochloride was used as the α-adrenoceptor agonist and cumulative concentration-response curves were constructed for the inhibition of twitch obtained with clonidine in the range 0.125 to 4 ng ml^-1. After washing out clonidine, the twitch response quickly recovered and an antagonist was then introduced into the Krebs reservoir. Clonidine concentration-response curves were repeated 90 min after introduction of the antagonist. The concentration of clonidine producing 50% inhibition of twitch before and after introduction of antagonist were obtained and the dose-ratio for clonidine was calculated. Various concentrations of the antagonists were used.
Chemother., 1959, 14, 48-58 and the values of pA2 and slope were calculated.

Another assay has as its system α1 -adrenoceptors. The assay is described as follows: α1 antagonistic activity on the isolated anococcygeus muscle of the rat (vs phenylephrine or methoxamine). The settings on record: agonist phenylephrine or methoxamine, Schild method, 30 min. The source says: The compounds of the invention generally antagonise the α2 -adrenoceptors to a much greater extent than the α1 -adrenoceptors. The α1 antagonistic activity can be evaluated by a number of different methods. One method involves assessing the activity on the isolated anococcygeus muscle of the rat. The method is based on that of Gillespie, Br.J.Pharmac., 1972, 45, 404-416. In the procedure male rats (250-360 g) are killed by a blow on the head and bled. The two anococcygeus muscles are removed from their position in the midline of the pelvic cavity, where they arise from the upper coccygeal vertebrae. The muscles are suspended in 5 ml organ baths in Krebs solution containing 10^-4 M ascorbic acid; to prevent drug oxidation. The tissues are gassed with a 95% oxygen, 5% CO2 mixture and maintained at 37°. Longitudinal muscle contractions are recorded using isotonic transducers. Cumulative dose response curves are then obtained to phenylephrine or in some cases methoxamine, both agents being […] alpha adrenoceptor agonists. The concentration range of phenylephrine or methoxamine used is 0.02 to 0.8 μg.ml^-1. The agonist is then washed from the bath and the test drug added to the bathing medium at a concentration of 10^-6 M. After 30 min equilibration with the test drug a further agonist dose response curve is obtained. […]

Consider `CCS(=O)(=O)NCCN([C@@H]1CCN2CCc3ccsc3[C@@H]2C1)S(=O)(=O)CC` (relative stereo) [Example 5, N-(4,5,8,9α,10,10aα-Hexahydro-7H-thieno[2,3-a]quinolizin-9-yl)-N-(2-ethanesulphonamidoethyl)ethane sulphonamide], for which, in the assay with α2 -adrenoceptor, the “α2 /α1 selectivity [antilog of (α2 pA2 -α1 pA2)]” value is 132 and the “pA2 for α2 -adrenoceptor antagonistic activity” value came out at 7.31. Moreover, the “pA2 values for α1 antagonistic activity” value in the assay on α1 -adrenoceptors is on record as 5.18.

For the molecule `CCCS(=O)(=O)N(C)[C@@H]1CCN2CCc3ccsc3[C@@H]2C1` (relative stereo) [Example 2, N-(4,5,8,9,10,10aα-hexahydro-7H-thieno[2,3-a]quinolizin-9β-yl)-N-methylpropanesulphonamide], in the assay on α2 -adrenoceptor, the “α2 /α1 selectivity [antilog of (α2 pA2 -α1 pA2)]” value worked out at 40 and the “pA2 for α2 -adrenoceptor antagonistic activity” value came to 7.5. Also, the “pA2 values for α1 antagonistic activity” value in the assay on α1 -adrenoceptors was determined as 5.9.
